Test results: US7547676B2, “Antagonist peptides to the C5A chemotactic function of vitamin D binding protein” (The Research Foundation of State University of New York, priority 2004, dated 2009)

T1: DBP immobilized on a Biacore sensor chip (Homo sapiens, UniProt P02774)
T1 construct: DBP was purified from human plasma; purchased Biodesign International; host or cells: human plasma
T1 sequence (P02774 17-474): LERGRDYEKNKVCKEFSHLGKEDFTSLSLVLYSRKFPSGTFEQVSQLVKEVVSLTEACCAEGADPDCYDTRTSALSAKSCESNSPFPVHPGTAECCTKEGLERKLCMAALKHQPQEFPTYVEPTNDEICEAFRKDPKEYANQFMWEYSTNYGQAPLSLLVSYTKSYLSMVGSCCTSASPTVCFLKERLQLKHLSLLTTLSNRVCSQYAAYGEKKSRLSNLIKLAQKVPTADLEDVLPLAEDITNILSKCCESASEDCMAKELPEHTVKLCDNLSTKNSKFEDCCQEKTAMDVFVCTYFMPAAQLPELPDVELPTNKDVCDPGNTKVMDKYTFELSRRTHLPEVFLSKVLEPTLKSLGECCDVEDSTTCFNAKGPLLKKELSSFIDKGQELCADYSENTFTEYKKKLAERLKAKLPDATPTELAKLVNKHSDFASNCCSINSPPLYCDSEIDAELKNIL


How the values were obtained:
[1] = tested on: U937-C5aR cells; test: C5a-induced intracellular calcium mobilization in U937-C5aR cells; assay type: cell-based, human; details: FIG. 11B, 12; 0.5 μM DBP peptide, 50 nM DBP, 0.1 nM C5a
Method: FIG. 11A and FIG. 11B show the effect of DBP on C5a-induced intracellular calcium mobilization in U937-C5aR cells. U937-C5aR cells (10^7 cells/ml) were resuspended in HBSS-1% BSA containing 2 μM Fluo-3 AM and incubated at 37° C. for 40 minutes. Cells incubated without the dye were used as a control to measure autofluorescence (Fmin). Following the dye uptake, cells were washed twice then suspended at 5×10^6 cells/ml in HBSS containing 1% BSA. For the pretreatment experiments, cells were incubated for 30 min at 22° C. with 50 nM DBP or 0.5 μM DBP peptide 1 (p1). For each measurement, 400 μl of cell suspension was added to a cuvette and stimulated with the indicated concentration of C5a (FIG. 11A) or 0.1 nM C5a (FIG. 11B). Fluorescence was then measured immediately using a Perkin-Elmer LS-5 fluorometer at 505 nm excitation, 526 nm emission for Fluo-3 AM. Fmax was measured by treating labeled cells with 60 μM digitonin. Intracellular free calcium concentrations were calculated using the following formula: (Ca^2+)=Kd (F−Fmin)/(Fmax−F), where Kd=325 nM for Fluo-3 according to manufacturer (Molecular Probes). Data are presented as mean±SEM (n=4-6) of the increase in intracellular calcium concentration.
U937-C5aR cells (10^7 cells/ml) were resuspended in HBSS-1% BSA containing 2 μM Fluo-3 AM and incubated at 37° C. for 40 minutes. Cells incubated without the dye were used as a control to measure autofluorescence (Fmin). Following the dye uptake, cells were washed twice then suspended at 5×10^6 cells/ml in HBSS containing 1% BSA. Cells were incubated for 30 min at 22° C. with either 50 nM DBP or 0.5 μM DBP peptide. For each measurement, 400 μl of cell suspension was added to a cuvette and stimulated with 0.1 nM purified C5a. Fluorescence was then measured immediately using a Perkin-Elmer LS-5 fluorometer at 505 nm excitation, 526 nm emission for Fluo-3 AM. Fmax was measured by treating labeled cells with 60 μM digitonin. Intracellular free calcium concentrations were calculated using the following formula: (Ca2+)=Kd (F−Fmin)/(Fmax−F), where Kd=325 nM for Fluo-3 according to manufacturer (Molecular Probes)

[2] = tested on: differentiated HL-60 cells; test: Chemotaxis assay, differentiated HL-60 cells responding to C5a, C5a plus DBP or ZAS; assay type: cell-based, Human; details: for block of the cochemotactic function of full-length natural DBP (C5a+DBP) / HL-60 cell chemotactic response to complement-activated serum (ZAS): cells pretreated with 1 μM peptide 30 min; for block of the cochemotactic function of full-length natural DBP (C5a+DBP): 100 pM C5a plus 50 nM DBP, 60 min; for HL-60 cell chemotactic response to complement-activated serum (ZAS): 1% ZAS; for enhancement of C5a-mediated chemotaxis by the peptides: peptides by themselves or mixed together
Method: Cells (6×10^6/ml) were resuspended in chemotaxis buffer and treated either with chemotaxis buffer (control), 1 μM of peptide 1 (130-152), or 1 μM of peptide 2 (150-172) for 30 min at room temperature. The chemotactic response of differentiated HL-60 cells to 100 pM C5a alone, C5a plus 50 nM full-length natural DBP or 1% zymosan-activated serum (ZAS) was measured for 60 minutes at 37° C. Numbers represent net cell movement in 60 min, mean±SEM of 3 experiments.
(§1) Cells and cell culture: Human promyelocytic cell line HL-60 was obtained from ATCC (Rockville, Md.) and cultured in RPMI 1640 medium supplemented with 10% FBS. Differentiation of HL-60 cells was initiated with 250 μM Bt2cAMP for 48 hours.
Chemotaxis assay. Chemotaxis was performed as described previously (see Kew, R. R. et al., J. Leukoc. Biol. 58, 55-58 (1995)). In brief, 35 μl of C5a (0.01 to 1 nM) in the chemotaxis buffer (HBSS with 1% BSA, 10 mM HEPES) were placed in duplicate in the lower chamber of a 48-well chamber (Neuroprobe, Md.). The lower compartments were covered with a 5 μm pore cellulose nitrate filter and then 50 μl of the cell suspension (2.5×10^5/well) was pipetted into the upper compartments. The chemotactic chamber was incubated for 1 hour at 37° C. in a humidified incubator with 5% CO2. Following incubation, the filter was fixed, stained and mounted on a microscope slide. Cell movement was measured as the distance in microns that the leading front of the cells had migrated into the filter (see Zigmond, S. et al., J. Exp. Med. 137, 387 (1973)).

[3] = biological target: T1, DBP immobilized on a Biacore sensor chip; test: Biacore surface plasmon resonance: U937-C5aR cell binding to immobilized DBP; details: FIG. 9A; 10^6 cells/ml pretreated with 50 nM DBP or 0.5 μM DBP peptide
Method: FIG. 8A and FIG. 8B show immobilization of DBP on a Biacore surface plasmon resonance sensor chip CM5. Purified DBP in HBSS (5 μM) was coupled to the sensor chip. Coupling was detected using 5 μg/ml affinity-purified anti-DBP (FIG. 8A). Different concentrations of U937-C5aR cells in HBSS were injected into the flow cell and allowed to interact with the immobilized DBP (FIG. 8B). Data is expressed as response units of the molecular interaction on the sensor chip.
(§2) FIGS. 9A to 9C show the effect of pretreating U937-C5aR cells with purified DBP or DBP peptides on the binding to DBP immobilized on a Biacore sensor chip. FIG. 9A: 10^6 cells/ml in HBSS were not treated (control), pretreated with 50 nM DBP, 0.5 μM DBP peptide 1 (p1) or DBP peptide 2 (p2). FIG. 9B: DBP peptide 1 immobilized to the Biacore sensor chip. FIG. 9C: DBP peptide 2 immobilized to the Biacore sensor chip. Data is expressed as response units of the molecular interaction on the sensor chip.
U937-C5aR cells (10^6 cells/ml in HBSS) were pretreated with a 25 μg/ml control IgG, 50 nM purified DBP or 25 μg/ml affinity-purified anti-CD44 and then allowed to interact with DBP immobilized on a Biacore sensor chip. Data is expressed as response units of the molecular interaction on the sensor chip.
According to the present invention, the interaction of an immobilized ligand, e.g., immobilized DBP, binding to cells can be measure by any established technology available in the art, e.g., by surface plasmon resonance (SPR) or Biacore technology. For example, in the present invention, the binding of U937-C5aR cells to immobilized DBP were examined by Biacore technology, the result of which is used to further determine if the DBP peptides generated in the present invention can alter the interaction U937-C5aR cells and DBP. […] To investigate further the effect of DBP peptides on cell binding, peptide 1 (FIG. 9B) and peptide 2 (FIG. 9C) were immobilized to Biacore sensor chips. […] Finally, the present invention also identifies that CD44 on the cell surface binds DBP and can, in part, mediate the C5a chemotactic cofactor effect of DBP (McVoy and Kew, J. Immunol. 175:4754, 2005). Therefore, using Biacore technology the present invention addresses the effect of blocking CD44 on U937-C5aR binding to immobilized DBP (FIG. 10). In the present invention, U937-C5aR cells were pretreated with either an irrelevant goat IgG (negative control), purified soluble DBP (positive control) or affinity-purified goat anti-CD44. […] These Biacore experiments have provided a powerful quantitative tool to investigate the cell binding region on DBP and examine the effects on DBP peptides on this interaction.

[4] = tested on: U937-C5aR cells; test: Biacore: U937-C5aR cell binding to immobilized DBP peptides; set-up: species or system human; details: FIG. 9B, 9C; peptide immobilized to Biacore sensor chip
Method: as §2
According to the present invention, the interaction of an immobilized ligand, e.g., immobilized DBP, binding to cells can be measure by any established technology available in the art, e.g., by surface plasmon resonance (SPR) or Biacore technology. For example, in the present invention, the binding of U937-C5aR cells to immobilized DBP were examined by Biacore technology, the result of which is used to further determine if the DBP peptides generated in the present invention can alter the interaction U937-C5aR cells and DBP. […] To investigate further the effect of DBP peptides on cell binding, peptide 1 (FIG. 9B) and peptide 2 (FIG. 9C) were immobilized to Biacore sensor chips. […] These Biacore experiments have provided a powerful quantitative tool to investigate the cell binding region on DBP and examine the effects on DBP peptides on this interaction.

[5] = tested on: differentiated HL-60 cells; test: Ligand-induced calcium mobilization (Fluo-3 AM) in differentiated HL-60 cells; assay type: cell-based, Human; details: differentiated HL-60 cells incubated 30 min with 50 nM of indicated DBP, then C5a
Method: as §1
Ligand-induced calcium mobilization. Calcium mobilization studies were performed using the Fluo-3 AM probe as described previously (see Merritt, J. E. et al., Biochem. J. 269, 513-519 (1990)). Differentiated HL-60 cells (1×10^7 cells/ml) were resuspended in HBSS-1% BSA containing 2 μM Fluo-3 AM (Molecular Probes, Eugene, Oreg.) and incubated at 37° C. for 40 minutes. Cells incubated without the dye were used as a control to measure autofluorescence (Fmin). Following the dye uptake, cells were washed twice then suspended at 5×10^6 cells/ml in HBSS containing 1% BSA. Half of the cell suspension was treated with 50 nM DBP for 30 min at room temperature, the other half served as the untreated control. For each measurement, 400 μl of cell suspension (with or without DBP) was added to a cuvette and stimulated with various concentrations of purified C5a at room temperature (22-24° C.). Fluorescence was then measured immediately using a Perkin-Elmer LS-5 fluorometer at 505 nm excitation, 526 nm emission for Fluo-3 AM. Fmax was measured by treating labeled cells with 60 μM digitonin. Intracellular free calcium concentrations were calculated using the following formula: (Ca^2+)=Kd (F−Fmin)/(Fmax−F), where Kd=325 nM for Fluo-3 according to manufacturer (Molecular Probes).

[6] = biological target: T2, G-actin (Oryctolagus cuniculus, UniProt P68135); test: G-actin binding detected by non-denaturing PAGE; details: non-denaturing PAGE (data not shown)
T2 construct: G-actin was purified from rabbit skeletal muscle; from tissue; host or cells: rabbit skeletal muscle
Method: Functional characterization of reDBP. The capacity of reDBP to bind 25(OH)-vitamin D3 was measured to determine if the expressed proteins could functionally bind a physiological ligand. […] The ability of reDBPs to enhance C5a-mediated chemotaxis and Ca^2+ flux in differentiated HL-60 cells was determined next.

G-actin binding [6] | Molecule | block of the DBP-enhanced C5a calcium signal [1] | block of the cochemotactic function of full-length natural DBP (C5a+DBP) ([2]; listed as DBP peptide 1) | block of the cochemotactic function of full-length natural DBP (C5a+DBP) ([2]; listed as SEQ ID NO: 3) | HL-60 cell chemotactic response to complement-activated serum (ZAS) ([2]; listed as DBP peptide 1) | HL-60 cell chemotactic response to complement-activated serum (ZAS) ([2]; listed as SEQ ID NO: 3) | enhancement of C5a-mediated chemotaxis by the peptides [2] | inhibition of U937-C5aR cell binding to the DBP chip [3] | U937-C5aR cell binding to immobilized peptide [4] | block of the cochemotactic function of full-length natural DBP (C5a+DBP) [2] | enhancement of C5a-mediated chemotaxis (net cell movement) ([2]; differentiated HL-60 cells, 100 pM C5a (FIG. 1: 25-200 pM) plus 50 nM of indicated DBP, 60 min at 37° C) | enhancement of intracellular Ca2+ flux in response to C5a [5]
– | EAFRKDPKEYANQFMWEYSTNYG [peptide 1, DBP residues 130-152] | completely blocks | completely blocked the chemotactic enhancing effect of DBP | completely block | completely blocked | eliminate | could not enhance C5a-mediated chemotaxis | no effect on cell binding | do not bind | – | – | –
– | NYGQAPLSLLVSYTKSYLSMVGS [peptide 2, DBP residues 150-172] | – | – | – | – | – | could not enhance C5a-mediated chemotaxis | about 50% | do bind | not | – | –
bound G-actin in a 1:1 molar complex | full-length reDBP: E. coli expressed full-length human DBP (Gc-2 allele), residues 1-458 (protein) LERGRDYEKNKVCKEFSHLGKEDFTSLSLVLYSRKFPSGTFEQVSQLVKEVVSLTEACCAEGADPDCYDTRTSALSAKSCESNSPFPVHPGTAECCTKEGLERKLCMAALKHQPQEFPTYVEPTNDEICEAFRKDPKEYANQFMWEYSTNYGQAPLSLLVSYTKSYLSMVGSCCTSASPTVCFLKERLQLKHLSLLTTLSNRVCSQYAAYGEKKSRLSNLIKLAQKVPTADLEDVLPLAEDITNILSKCCESASEDCMAKELPEHTVKLCDNLSTKNSKFEDCCQEKTAMDVFVCTYFMPAAQLPELPDVELPTNKDVCDPGNTKVMDKYTFELSRRTHLPEVFLSKVLEPTLKSLGECCDVEDSTTCFNAKGPLLKKELSSFIDKGQELCADYSENTFTEYKKKLAERLKAKLPDATPKELAKLVNKRSDFASNCCSINSPPLYCDSEIDAELKNIL | – | – | – | – | – | – | – | – | – | significantly enhanced | significantly enhanced
